Results as given in patent US6153653A, “Choline compositions and uses thereof” (Protarga, Inc., priority 1997, dated 2000).
Where “and” joins values, the source holds several entries; their conditions need not be identical. Equal values may be shown once. Entries after “also recorded” stand apart in the source; their conditions may differ.

Key:
[1] = cited from earlier work
[2] = in vivo; cited from earlier work
[3] = relative to tPA; cited from earlier work
[4] = system: locomotor activity of mice; experiment: Locomotor activity (locomotor depression) study, Digiscan chambers; assay type: in vivo, male Swiss-Webster mice (Hsd:ND4)
Protocol: A dose-response study of DHA-choline-induced locomotor depression was conducted using 40 Digiscan locomotor activity testing chambers (40.5×40.5×30.5 cm) housed in sets of two, within sound attenuating chambers. A panel of infrared beams (16 beams) and corresponding photo detectors were located in the horizontal direction along the sides of each activity chamber. A 7.5W incandescent light above each chamber provided dim illumination. Fans provided an 80-dB ambient noise level within the chamber. Separate groups of 8 non-habituated male Swiss-Webster mice (Hsd:ND4, aged 2-3 mo.) were injected via the intraperitoneal route (i.p.) with either vehicle or DHA-choline (0.5, 2.5, 5, 10, 20 or 40 mg/kg), 20 minutes prior to locomotor activity testing. In all studies, the total distance (cm traversed in the horizontal plane) was measured for 2 hours within 10 min periods.
The period 0-30 min was selected for analysis of dose-response data because this is the time period in which DHA-choline produced maximal effects. The mean average distance per 10 min for this 30 min period were fit to a linear function of log, dose of the descending portion of the dose-effect curve (0.5 to 40 mg/kg dose range).

[5] = system: MCA occlusions of rat brain; experiment: Middle cerebral artery occlusion-reperfusion stroke model, infarct by triphenyltetrazolium chloride staining; assay type: in vivo; conditions: for Infarct volume (% of control non-occluded side of brain), Average: vehicle average 35.5
Protocol: Two sets of experiments were carried out. In the first set, rats were administered with 50 mg/kg of DHA-choline i.p. at 30 minutes prior to occlusion of the middle cerebral artery of the left side of the brain using a standard highly reproducible animal model of stroke (Karpiak et al., J. Neurosci. Res. 30:512-520, 1991). Occlusion of the middle cerebral artery inhibits blood flow to a major portion of the left cortical and subcortical regions of the brain. After a two hour period, the occluded blood vessel was opened to allow reperfusion of the brain, and anesthesia was terminated. Each animal received additional doses of 50 mg/kg of DHA-choline 24 and 48 hours later.
The animals were sacrificed, perfused with formalin fixative, brains were sliced into seven 2 mm thick coronal sections, and stained with triphenyltetrazolium chloride (Watson et al., J. Neurosci. Methods 53:203-208, 1994). In this test, tissue that contains intact mitochondria stains red, whereas dead tissue with damaged mitochondria picks up no stain and remains white. Each unstained area on the left side of a section was measured and compared to the total area of the control non-occluded right side of the same section of the brain. The area of damaged (white) brain tissue cells was calculated as a percent of the intact right side of a section. […] (n=5 per group.)
In the second set of experiments (n=5), the identical occlusion-reperfusionrat model was used; only the time of administration of the drug was changed. DHA-choline was injected i.p. at a dose of 50 mg/kg at one hour after the beginning of the reperfusion, i.e., at three hours after the initiation of the stroke event. Controls (n=5) received an injection of the vehicle instead of the drug according to the same protocol.

Solubility = assay type: physicochemical
Stability = assay type: physicochemical; conditions: for Stability on exposure in the air (in words): exposed in the air
[6] = system: animal models, clinical trials, models of aging; conditions: cited from earlier work
[7] = 50 mg/kg i.p. at 30 min prior to occlusion

In the case of `CC/C=C\C/C=C\C/C=C\C/C=C\C/C=C\C/C=C\CCC(=O)O` [DHA, cis-docosahexaenoic acid], the “Stability in the presence of oxygen (in words)” value [1] is given as “can be unstable in the presence of oxygen” and the “crossing the blood-brain barrier (in words)” value [2] is given as “unusually effective in crossing the blood-brain barrier”.
In the case of `Nc1ccn([C@@H]2O[C@H](CO)[C@@H](O)[C@H]2O)c(=O)n1` [cytidine], the “crossing the blood-brain barrier (in words)” value [2] is given as “cross the blood-brain barrier”.
For “tPA conjugated to polyethylene glycol: conjugation of tPA to polyethylene glycol (EP-A304,311)”, the “clearance rate (in words)” value [3] is given as “reduce the clearance rate of tPA”.
In the case of `CC/C=C\C/C=C\C/C=C\C/C=C\C/C=C\C/C=C\CCC(=O)OCC[N+](C)(C)C` [DHA-choline, docosahexaenoyl choline iodide], the “one-way analysis of variance on total distance/10 min, F(6,49)” value ([4]; 0-30 min, overall effect) is reported as 10.5, the “time period in which maximal effects were produced” value ([4]; i.p., after 20 min pretreatment) is reported as 0 to 30 min and the “decrease in number of dead cells” value [5, 7] is reported as “about 50%”. The “Infarct volume (% of control non-occluded side of brain), individual animals” value ([5]; 50 mg/kg i.p. at 30 min prior to occlusion, Group No. 1 to 4) was 22 % of control non-occluded side of brain and 19 % of control non-occluded side of brain and 16 % of control non-occluded side of brain and 20 % of control non-occluded side of brain, the “Infarct volume (% of control non-occluded side of brain), Average” value [5, 7] was 19.3 % of control non-occluded side of brain and the “Infarct volume (% of control non-occluded side of brain), individual animals” value ([5]; 50 mg/kg i.p. at 3 hours after occlusion, Group No. 1 to 5) was 15 % of control non-occluded side of brain and 17 % of control non-occluded side of brain and 25 % of control non-occluded side of brain and 21 % of control non-occluded side of brain and 20 % of control non-occluded side of brain. For the same compound, the “Infarct volume (% of control non-occluded side of brain), Average” value ([5]; 50 mg/kg i.p. at 3 hours after occlusion) was 19.6 % of control non-occluded side of brain, the “decrease in infarct volume” value ([5]; 50 mg/kg i.p. at three hours after initiation of stroke (one hour after beginning of reperfusion)) was “approximately 50%” and the “Solubility (solvents, in words)” value (Solubility) was “soluble in CH2 Cl2, CHCl3, EtOAc, EtOH insoluble in hexanes, Et2 O”. For the same compound, the “Stability on exposure in the air (in words)” value (Stability) was “exposed in the air for 5 days showed that the compound had not decomposed; also recorded: if it is exposed in the air for too long will decompose” and the “Stability on neutral alumina (in words)” value (Stability; purification on neutral alumina, 1H NMR) was “will result in other peaks on ^1 H NMR”.
In the case of `C[N+](C)(C)CCO` [choline], the “crossing the blood-brain barrier (in words)” value [2] is listed as “cross the blood-brain barrier”.
With `CC/C=C\C/C=C\C/C=C\C/C=C\C/C=C\C/C=C\CCC(=O)OCCN(C)C` [2-dimethylaminoethyl docosahexaenoate] the “Solubility (solvents, in words)” value (Solubility) was “soluble in EtOAc, Et2 O, CH2 Cl2, CHCl3, EtOH insoluble in H2 O” and the “Stability on exposure in the air (in words)” value (Stability) was “turns dark when exposed in the air for several days”.
In the case of `C[N+](C)(C)CCOP(=O)(O)OP(=O)([O-])OC[C@H]1O[C@@H](n2ccc(N)nc2=O)[C@H](O)[C@@H]1O` [CDP-choline, Cytidine 5'-diphosphocholine], the “neuroprotective effect; memory and learning deficits (in words)” value [6] is listed as “neuroprotective effect in animal models and in clinical trials; also recorded: improves memory and learning deficits in models of aging” and the “release on administration (in words)” value [2] is listed as “choline and cytidine are released into the systemic circulation”.
